The results in this text go back to patent publication US8815935B2, “Inhibitors of protein prenyltransferases” (The Regents of the University of California, priority 2008, dated 2014).

Where two headings read alike, the source gives them in different places.

The subject of one assay is MCF7. Description: MCF7 cell growth inhibition. The assay is classed as cell-based, human. Particulars: Homo sapiens, MCF7, Tables 8-15; no unit printed there. Here is the method:
(§1) In FIG. 9-24 in vitro IC50 values for the GGTase I activity are reported. In Tables 7-15 in cell GI50 values for the growth inhibition of a variety of cancer cell lines (e.g., Jurkat, K562, MDA-MB-231, BT474, MCF7, MiaPaCa2, Aspc-1, Panc-1, Capan-2, CFpac-1, and MCF10a) are reported.
(§2) Cell viability was determined by Cell Counting Kit-8 (CCK-8, Dojindo, Kumamoto, Japan) as described previously (31). Cell viability was calculated relative to the DMSO control. Cell cycle profile was analyzed by flow cytometry as described previously (32).

The subject of another assay is Panc-1. The assay can be described thus: Panc-1 cell growth inhibition. It is filed as cell-based, human. Particulars: no unit printed there. Here is the method:
as §1
Panc-1 cells (Pancreatic cancer cell line) and Jurkat cells (T-cell leukemia) were treated with 12.5 μM of P5-H6 or 12.5 μM of mP5-H6a for 72 hours. The cell number was counted as described in Example 5.
as §2

A further assay deals with BT474. Description: BT474 cell growth inhibition. The assay is classed as cell-based, human. The following applies: no unit printed there. The procedure:
as §1, §2

A further assay relates to Jurkat cells. The assay can be described thus: Jurkat cell growth inhibition. The assay is classed as cell-based, human. The gist of the method: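 Jurkat T-cell leukemia cells were exposed to compound for 72 h, with cell number counted and viability read by CCK-8 relative to the DMSO control. GI50 is the compound concentration giving 50% growth inhibition.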
For the next assay, the system named is MDA-MB-231. Description: MDA-MB-231 cell growth inhibition. It is filed as cell-based, human. The following applies: no unit printed there. The procedure:
as §1, §2

The subject of the next assay is CFpac-1. The assay can be described thus: CFpac-1 cell growth inhibition. The assay is classed as cell-based, human. The following applies: no unit printed there. Here is the method: as §1, §2
The next assay relates to MiaPaCa2. Description: MiaPaCa2 cell growth inhibition. The assay is classed as cell-based, human. The following applies: no unit printed there. The procedure: as §1, §2
The subject of a further assay is MCF10a. Description: MCF10a cell growth inhibition. The following applies: Homo sapiens, MCF-10A, Tables 8-15; no unit printed there. The assay is classed as cell-based.
Text: as §1

In a further assay the test system is Aspc-1. Description: Aspc-1 cell growth inhibition. Particulars: no unit printed there. It is filed as cell-based, human. Here is the method:
as §1, §2

The next assay concerns Capan-2. Description: Capan-2 cell growth inhibition. The assay is classed as cell-based, human. Particulars: no unit printed there. Here is the method:
as §1, §2

A further assay deals with T1, GGTase-I (Rattus norvegicus, UniProt P53610+Q04631).
T1 construct: purchased JENA BIOSCIENCE
The assay can be described thus: In vitro GGTase-I enzyme assay (IC50, kinetics). The assay is classed as biochemical. In outline:
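Rat GGTase-I (50 nM) with 0.5 μM [3H]-GGPP and 2 μM MBP-RhoA in Tris-HCl pH 7.5, MgCl2, ZnCl2, DTT, 2.5% DMSO, 10 min at 30 °C; radiolabel incorporation by TCA filter binding and scintillation. Kinetics: 5 min reactions varying GGPP or RhoA at fixed other components.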

For the next assay, the system named is K562 cells. The assay can be described thus: K562 cell growth inhibition. The following applies: no unit printed there. The assay is classed as cell-based, human. Here is the method: K562 cells are a cell line of human erythroleukemia cells. The K562 cells were treated with P3-E5, P5-H6 or GGTI-298 (a known GGTI compound illustrated in FIG. 27) for 72 hours and then cell number was counted using cell counting kit-8 (Dojindo, Gaithersburg, Md.). Cell viability relative to the DMSO control and the known GGTI compound is plotted in FIG. 23.
as §2

The subject of assay [1] is geranylgeranylated Rheb (Rheb-CSVL) in HEK 293 cells. Description: Rheb-CSVL mobility shift in HEK 293 cells. The following applies: 48 hours. It is filed as cell-based, human. The source says: Finally, we investigated in vivo effects of compounds 22 (also known as UC-22) and 23 (also known as UC-23). Human embryonic kidney (HEK) 293 cells were transfected with the Rheb-CSVL construct that expresses the geranylgeranylated form of the Rheb protein. Inhibition of the geranylgeranylation of this protein can be detected from a shift in its mobility on SDS polyacrylamide gel; the unprocessed form appears as a slowly migrating band.
Human embryonic kidney (HEK) 293 cells expressing Myc-HA tagged-Rheb-CVSL (upper) or Myc-HA tagged-Rheb-WT (lower) were treated with P3-E5 for 48 hours and then lysed. The cell lysates were run on a SDS polyacrylamide gel and immunoblotted using anti-Myc or anti-Actin antibody. The descriptors P and U indicate processed and unprocessed Rheb, respectively.
Human embryonic kidney (HEK) 293 cells expressing Myc-HA tagged-Rheb-CVSL (upper) or Myc-HA tagged-Rheb-WT (lower) were treated with mP5-H6a (also referred to as mP5-H6), or GGTI-298 for 48 hours and then lysed. Lysates were run on a SDS polyacrylamide gel and immunoblotted with anti-Myc or anti-Actin antibody.

The target of another assay is T2, FTase (Rattus norvegicus, UniProt Q02293+Q04631).
T2 construct: purchased JENA BIOSCIENCE
The assay can be described thus: In vitro FTase assay (K-Ras4B substrate, [3H]FPP). The following applies: at concentrations at which GGTase-I was inhibited by more than 90%. The assay is classed as biochemical. The source says:
To further characterize the pilot library, inhibitors of protein farnesyltransferase were identified. This was accomplished by using K-Ras4B as a substrate protein, tritiated farnesylpyrophosphate ([^3H]FPP) and protein farnesyltransferase. See Finegold, A. A., Johnson, D. I., Farnsworth, C. C., Gelb, M. H., Judd, S. R., Glomset, J. A. and Tamanoi, F. (1991) Protein geranylgeranyltransferase of Saccharomyces cerevisiae is specific for Cys-Xaa-Xaa-Leu motif and requires the CDC43 gene product but not the DPR1 gene product. Proc. Natl. Acad. Sci. USA 88, 4448-4452. […] On the other hand, the structure of the compounds P1-F11, P2-B7 and P2-E9 resemble those of GGTIs. The FTI P1-F11 resembles the GGTI P1-F10, while the FTI P2-B7 resembles the GGTI P2-C10. The FTI P2-E9 is similar to the GGTI P2-G3. Similarity of some GGTI and FTI compounds may point to common structural features between the two closely related enzymes. As described before, FTase and GGTase I have similar three-dimensional structures and a shared alpha subunit. On the other hand, FTase specific inhibitors may recognize a region(s) that is different between the two enzymes.
Examples 2-8 illustrate assays of bioactivity. These methods are applicable to the compounds of the present invention having the particular linkers and scaffolds described herein, to determine their activity. […] Varying concentrations of the two compounds were added to each enzyme reaction. The FTase (protein farnesyltransferase) assay was carried out using K-Ras4B as a substrate protein, FTase (JENA Bioscience, San Diego, Calif.) and [3H]farnesyl pyrophosphate. Incubation was for 30 min at 37° C.
GGTase-I and FTase activities were determined by following the incorporation of radiolabeled isoprenoid [^3H]-geranylgeranyl or [^3H]-farnesyl into substrate proteins. FTase or GGTase-I (50 nM) were used to initiate reactions containing 0.4 μM of [^3H]-FPP or 0.5 μM of [^3H]-GGPP and 2 μM of MBP-tagged substrates (K-Ras4B for FTase; RhoA for GGTase-I) in 20 μl of buffer {50 mM Tris-HCl (pH 7.5), 10 mM MgCl2, […] and 5 mM DTT}. Inhibitors were added at the indicated concentrations. The final DMSO concentration was 2.5% for all samples.
Reactions were carried out for 10 min at 30° C. The reaction mixture was spotted onto a filter paper, treated with 10% trichloroacetic acid (TCA) followed by ethanol and acetone washing. The filter was counted using a scintillation counter. Kinetic assays in which the GGPP concentration was varied employed fixed concentrations of GGTase-I and RhoA, and reactions were carried out for 5 min. Similarly, fixed concentrations of GGTase-I and GGPP were used when the amount of RhoA was varied.

As for `Cc1ccccc1S(=O)(=O)N1[C@@H](c2ccc(Cl)c(Cl)c2)C(C(=O)N[C@@H](Cc2ccccc2)C(N)=O)=C[C@H]1C(C)(C)C` [P61-B11], the GI50 was found to be 4.74 µM with MCF7; 7.52 µM in the assay on Panc-1 (Tables 8-15); 10.6 µM in the assay on BT474 (Tables 8-15); 6.9 µM in the assay on Jurkat cells (Tables 4, 6, 7, read-out: Jurkat cell GI50); 6.9 µM in the assay on Jurkat cells (Tables 8-15, no unit printed there, read-out: Jurkat GI50); 5.54 µM in the assay with MDA-MB-231 (Tables 8-15). For the same compound, the GI50 in the assay on CFpac-1 (Tables 8-15) was 2.03 µM; in the assay on MiaPaCa2 (Tables 8-15), 7.49 µM; with MCF10a it was 9.38 µM; with Aspc-1 (Tables 8-15), 11.5 µM; with Capan-2 (Tables 8-15), 11.3 µM; with K562 cells (Tables 8-15), 6.9 µM. For the same compound, the IC50 on GGTase-I (Tables 3, 5, 7, read-out: In vitro (enzyme assay) IC50, GGTase I) turned out to be 7.6 µM; at GGTase-I (Tables 8-15, no unit printed there (Table 7 head: μM unless otherwise specified), read-out: In vitro (GGTase I IC50)) it was 7.6 µM.
As to `Cc1ccccc1S(=O)(=O)N1[C@@H](c2ccc(Cl)cc2)C(C(=O)N[C@@H](Cc2ccccc2)C(N)=O)=C[C@H]1C(C)(C)C` [P61A6], the 50% growth inhibitory concentration (GI50) with MCF7 came to 3.72 µM; with Panc-1 (Homo sapiens, PANC-1, Tables 8-15), 13 µM; in the assay on BT474 (Homo sapiens, BT-474, Tables 8-15), 8.64 µM; in the assay with Jurkat cells (Homo sapiens, Jurkat, Tables 8-15, no unit printed there, read-out: Jurkat GI50), 4.89 µM; with MDA-MB-231 (Homo sapiens, MDA-MB-231, Tables 8-15), 8.25 µM; with CFpac-1 (Homo sapiens, CFPAC-1, Tables 8-15) it was 6.38 µM. Further, the 50% growth inhibitory concentration (GI50) was 7.48 µM in the assay on MiaPaCa2 (Homo sapiens, MIA PaCa-2, Tables 8-15); 13.2 µM in the assay on MCF10a; 12.4 µM in the assay with Aspc-1 (Homo sapiens, ASPC1, Tables 8-15); 11.5 µM with Capan-2 (Homo sapiens, Capan-2, Tables 8-15); 6.28 µM in the assay with K562 cells (Homo sapiens, K562, Tables 8-15).
As to `Cc1ccccc1S(=O)(=O)N1[C@@H](c2ccc(Cl)cc2)C(C(=O)O)=C[C@H]1C(C)(C)C` [compound 22], the “inhibition of geranylgeranylation of Rheb-CSVL (slowly migrating unprocessed band)” value in [1] is listed as “inhibit geranylgeranylation within the cell”. For the same compound, on FTase, the “inhibition of FTase” value is “did not inhibit FTase”.
In the same order, the values of `Cc1ccccc1S(=O)(=O)N1C(c2ccc(Cl)cc2)CC=C(C(=O)O)[C@@H]1c1cccc(Cl)c1` (some centres unmarked) [compound 23] are “inhibit geranylgeranylation within the cell” and “did not inhibit FTase”.
